From publication PMC3921447, “Homologous and heterologous desensitization of guanylyl cyclase-B signaling in GH3 somatolactotropes” (Cell and Tissue Research, 2013)

Legend:
GC-B [1] = target: T1, GC-B (Rattus norvegicus, UniProt P16067); assay: CNP time-course of total cGMP accumulation (rapid homologous desensitization) in GH3 cells; format: cell-based; settings: 100 nM CNP, 1 mM IBMX, n = 3 in triplicate
T1 construct: rapid homologous desensitization of endogenous GC-B receptors in GH3 cells; endogenous in cells; host or cells: GH3 rat somatolactotrope cells
T1 sequence (P16067 17-1047): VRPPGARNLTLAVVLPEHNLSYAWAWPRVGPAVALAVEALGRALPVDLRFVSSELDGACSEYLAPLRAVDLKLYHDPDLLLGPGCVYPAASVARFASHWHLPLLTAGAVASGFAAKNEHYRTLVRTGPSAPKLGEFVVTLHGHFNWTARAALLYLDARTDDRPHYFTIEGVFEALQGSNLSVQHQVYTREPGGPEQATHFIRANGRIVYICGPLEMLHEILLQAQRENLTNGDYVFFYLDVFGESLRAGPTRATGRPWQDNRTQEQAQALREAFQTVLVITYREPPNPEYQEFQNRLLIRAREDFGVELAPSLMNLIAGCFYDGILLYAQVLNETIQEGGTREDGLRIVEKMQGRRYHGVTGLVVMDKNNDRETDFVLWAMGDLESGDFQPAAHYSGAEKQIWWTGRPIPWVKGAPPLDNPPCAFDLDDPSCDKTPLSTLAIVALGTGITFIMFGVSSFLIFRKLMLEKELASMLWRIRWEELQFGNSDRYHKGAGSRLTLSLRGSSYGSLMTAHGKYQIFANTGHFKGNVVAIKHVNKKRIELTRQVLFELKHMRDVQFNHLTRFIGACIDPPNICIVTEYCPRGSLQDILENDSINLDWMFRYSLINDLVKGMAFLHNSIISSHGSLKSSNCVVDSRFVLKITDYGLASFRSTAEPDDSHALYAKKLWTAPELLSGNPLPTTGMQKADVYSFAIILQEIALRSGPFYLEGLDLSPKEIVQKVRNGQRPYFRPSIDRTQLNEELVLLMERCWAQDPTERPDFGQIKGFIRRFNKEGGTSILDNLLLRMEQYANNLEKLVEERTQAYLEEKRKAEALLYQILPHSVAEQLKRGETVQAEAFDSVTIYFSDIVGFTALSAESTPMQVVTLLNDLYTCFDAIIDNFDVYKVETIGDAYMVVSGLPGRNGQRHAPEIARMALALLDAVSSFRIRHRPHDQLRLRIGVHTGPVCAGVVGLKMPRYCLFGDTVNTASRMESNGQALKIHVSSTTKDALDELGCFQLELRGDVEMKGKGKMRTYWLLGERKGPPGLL
Protocol: To characterize the activity of these receptors further , a series of experiments was performed to examine mechanisms of receptor desensitization. Total cGMP accumulation was measured to determine the changes in activity of the GC-A and GC-B receptors when treated over a short time-course with their native ligands, namely ANP and CNP, respectively. GH3 cells were plated at 3 × 10^5 cells/well in a 24-well plate, treated with 100 nM of either ANP or CNP in the presence of the phosphodiesterase inhibitor IBMX (1 mM) for 0 to 15 min and assayed for total cGMP concentration (Fig. 2a, b). […] In another experiment performed with 100 nM ANP instead of CNP, a rapid increase in cGMP accumulation (7.91 ± 0.9 to 164.31 ± 9.1pmol/ml per milligram protein) occurred between 0 and 5 min.
(§1) Fig. 2 Rapid homologous desensitization of CNP-dependent but not ANP-dependent cGMP accumulation in GH3 cells. Cells were treated with PSS containing either (a) 100 nM CNP or (b) 100 nM ANP for 0–15 min in the presence of 1 mM IBMX.

GC-B [2] = target: T1, GC-B; assay: Effect of protein phosphatase inhibitors on rapid homologous desensitization of CNP-stimulated cGMP accumulation in GH3 cells; format: cell-based; settings: 100 nM CNP, 1 mM IBMX; 30 min pre-treatment with 100 nM OA, 1 nM cypermethrin or 1 mM Na3VO4; control = CNP alone; n = 3
Protocol: as §1
Similar short time-courses were performed, except that some cells were pre-treated with 100 nM okadaic acid (OA, a PP2A inhibitor), 1 nM cypermethrin (a PP2B inhibitor), or 1 mM sodium orthovanadate (Na3VO4, a protein tyrosine phosphatase inhibitor) for 30 min prior to CNP treatment (Fig. 2c).

GC-B [3] = target: T1, GC-B; assay: GC-B protein expression by Western blot in GH3 cells; format: cell-based; settings: 100 nM CNP, up to 24 h; n = 3; Fig. 4b
Protocol: GH3 cell lysates (from 1 × 10^6 cells) were prepared in lysis buffer (0.5 M TRIS pH 6.8, 10 % [v/v] glycerol, 1 % [w/v] SDS). Protein lysates were sonicated, boiled at 95 °C for 5 min, resolved by 10 % SDS-polyacrylamide gel electrophoresis, transferred to polyvivylidene difluoride membrane and probed for GC-B (1:2000 dilution) or β-actin (1:5000 dilution) expression. Appropriate horseradish-peroxidase-conjugated secondary antibodies were purchased from DAKO.
We next examined whether Npr2 or GC-B down-regulation (as determined by a reduction in Npr2 mRNA expression and or GC-B protein expression) mediated the inhibitory effects of sustained CNP exposure. The effect of CNP exposure on the expression of the endogenous Npr2 gene was examined by using qPCR. […] To establish whether down-regulation occurred at the protein level, total proteins were extracted from GH3 cells incubated for up to 24 h with 100 nM CNP.
Fig. 4 CNP fails to alter expression of Npr2 mRNA or GC-B protein in GH3 somatolactotrope cells. a GH3 cells were stimulated with 0 or 100 nM CNP for 24 h prior to extraction of total RNA, cDNA synthesis, and quantitative PCR for endogenous Npr2 expression. […] Blots were stripped and re-probed for β-actin. Panels are representative of three independent experiments (n = 3)

GC-A = settings: ref Suga et al. [1992]; cited from earlier work
Excerpt: (§2) As activation of either GC-B or GC-A signaling leads to an increase in cGMP concentrations, we examined whether stimulation of each receptor would lead to the desensitization of the other receptor.

αT3-1 cells = settings: ref Fowkes et al. [2000]; cited from earlier work
Excerpt: as §2

CC[C@H](C)[C@@H]1NC(=O)[C@H](CCCNC(=N)N)NC(=O)[C@H](CC(=O)O)NC(=O)[C@H](CC(C)C)NC(=O)[C@H](CCCCN)NC(=O)[C@H](CC(C)C)NC(=O)CNC(=O)[C@H](Cc2ccccc2)NC(=O)[C@@H](NC(=O)CNC(=O)[C@H](CCCCN)NC(=O)[C@H](CO)NC(=O)[C@H](CC(C)C)NC(=O)CN)CSSC[C@@H](C(=O)O)NC(=O)CNC(=O)[C@H](CC(C)C)NC(=O)CNC(=O)[C@H](CO)NC(=O)[C@H](CCSC)NC(=O)[C@H](CO)NC(=O)CNC1=O [CNP, C-type natriuretic peptide]
total cGMP accumulation, 0 min (GC-B [1]; 0 min (start of time-course), mean ± SEM): 6.4 ± 0.7 pmol/ml per milligram protein
rate of cGMP accumulation between 5 to 15 min as % of the initial rate (0 to 5 min) (GC-B [1]; ***P < 0.001): 22.2 ± 3.9%
total cGMP accumulation, 5 min (GC-B [1]; 5 min, mean ± SEM): 82.7 ± 15.5 pmol/ml per milligram protein
total cGMP accumulation, 15 min (GC-B [1]; 15 min, mean ± SEM): 117.4 ± 17.6 pmol/ml per milligram protein
rate of cGMP accumulation from 5 to 15 min (desensitization) (GC-B [2]): underwent desensitization as shown by the failure to maintain the initial rate of cGMP accumulation
GC-B protein expression (GC-B [3]): failed to alter expression levels
activation of the reciprocal receptor (GC-A): can activate the reciprocal receptor, albeit only at pharmacological concentrations
desensitization of the other receptor (αT3-1 cells): fail to desensitize the other receptor
